# Data from patent publication US20110136728A1, “METHODS OF INCREASING BONE FORMATION USING LEPTIN-RELATED PEPTIDES” (priority 2009, published 2011).
# Non-standard residues stand in square brackets, D forms with d. Residues, ends and D or L forms follow the SMILES beside them.
# Design: species or system male Swiss Webster mice
# Settings: mouse, in vivo
# Procedure: Six week-old male Swiss Webster mice weighing approximately 30 g were obtained from Taconic Farms (Germantown, N.Y., USA). The animals were housed three per cage in polycarbonate cages fitted with stainless steel wire lids and air filters, and supported on ventilated racks (Thoren Caging Systems, Hazelton, Pa., USA) in the Albany Medical College Animal Resources Facility. The mice were maintained at a constant temperature (24° C.) with lights on from 07:00 to 19:00 h, and allowed food and water ad libitum until used for uptake studies. Mouse [[…]]OB3 was prepared commercially as a C-terminal amide by Bachem (Torrance, Calif., USA). For oral delivery, mouse [[…]]-OB3 was dissolved in either phosphate buffered saline (PBS, pH 7.2) or 0.3% […] Therapeutics, San Diego, Calif. USA) reconstituted in water, at a concentration of 1 mg/200 ul and administered by gavage. Is has been previously shown that this concentration to be optimum for regulating energy expenditure, glycemic control, and insulin sensitivity in two genetically obese mouse models. (See Grasso P. et al., Regulatory Pept. 101:123-9 (2001); Grasso P. et al., Regulatory Pept. 85:93-100 (1999); Grasso P. et al., Endocrinology 138:1413-8 (1997); Grasso P. et al., Diabetes 48:2204-9 (1999); and Rozhayskaya-Arena M. et al., Endocrinology 141:2501-7 (2000)). At time zero (0), 200 μl mouse [[…]]-OB3 in PBS or 0.3% […]® was delivered by gavage to each mouse. Following peptide administration, the mice were transferred to separate cages for the designated time period. Five, 10, 20, 40, 60, or 120 min after peptide delivery, the mice (six per time point) were anesthetized with isoflurane (5%) and exsanguinated by cardiac puncture. Euthanasia was confirmed by cervical dislocation. The blood was collected in sterile nonheparinized plastic centrifuge tubes and allowed to stand at room temperature for 1 h. The clotted blood was rimmed from the walls of the tubes with sterile wooden applicator sticks. Individual serum samples were prepared by centrifugation for 30 min at 2600×g in an Eppendorf […], A-4-38 rotor (Eppendorf North America, Westbury, N.Y., USA), The serum samples in each experimental group (n=6) were pooled and stored frozen until assayed for mouse [[…]]-OB3 content by competitive ELISA. Mouse [[…]]-OB3 content of the pooled serum samples was measured by a competitive ELISA developed and validated in our laboratory as previously described. (See Novakovic Z. et al., Regulatory Pept. 154:107-11 (2009)). Serum concentrations of mouse [[…]]OB3 vs. time following oral delivery were plotted using the graphics program SigmaPlot 8.0 (SPSS Science, Chicago, Ill., USA). The area under the curve (AUC) was calculated with a function of this program. The lowest AUC value obtained was arbitrarily set at 1.0. Relative bioavailabilty was determined by comparing all other AUC values to 1.0. The period of time required for the serum concentration of mouse [[…]]-OB3 to be reduced to exactly one-half of the maximum concentration achieved following oral administration of mouse [[…]]-OB3 in the absence or presence of […]® was calculated using the following equation: […] Clearance of mouse [[…]]-OB3 from the plasma following oral delivery was calculated from the AUC using the following equation: CL=Dose/AUC Since the half-life of a drug is inversely related to its clearance from the plasma and directly proportional to its volume of distribution, the apparent volume of distribution of mouse [[…]]-OB3 following oral delivery was calculated from its half-life and clearance using the following equation: […] The relative oral bioavailability of mouse [[…]]-OB3 delivered in […]® was compared to the relative bioavailabilities of intranasal and three commonly used injection methods of delivery recently reported. (See Oliveira Jr. V X. et al., J. Pept. Sci. 14:617-25 (2008)). […]
structure (smiles),measurement,setting,value
CC(C)C[C@@H](NC(=O)[C@H](CO)NC(=O)[C@H](CS)NC(=O)[C@@H](N)CO)C(=O)N1CCC[C@H]1C(=O)N[C@@H](CCC(N)=O)C(=O)N[C@H](C(N)=O)[C@@H](C)O [mouse [D-Leu-4]-OB3] (H-SCS[dL]PQT-NH2; N-terminus assumed),Relative oral bioavailability,,52.2%
same,bioavailability,Relative oral bioavailability,47.3%
same,Maximum uptake (Cmax) in Intravail relative to PBS,"po, 1 mg",3.6 fold
same,Plasma CL in PBS compared with Intravail,"po, 1 mg",four times faster
same,Tmax,"po, 1 mg",50 min
same,t1/2 (serum half-life),"po, 1 mg",20.15 min
same,tmax,"po, 1 mg",50 min
